Columns and labels:
Assay type in all cases: cell-based
[1] = system: MDA-MB-231; experiment: Cell growth inhibition assay, breast cancer cell line MDA-MB-231; conditions: Homo sapiens; MDA-MB-231 breast cancer cell line, 5,000 cells/well
Method: The inhibitory effects of the compounds of the present invention against the growth of cancer cells were evaluated as shown below. The cancer cell lines including stomach cancer cell line (AGS), breast cancer cell lines (MDA-MB-231, MDA-MB-468, and BT-549), prostate cancer cell lines (LNCaP and DU-145), colon cancer cell line (HCT116), ovarian cancer cell line (SW626), liver cancer cell line (Hep3B), kidney cancer cell line (ACHN), lung cancer cell line (NCI-H23) and blood cancer cell lines (HEL92.1.7 and U266) were cultured under the protocol provided by each supplier. A medium supplemented with 10 ng/mL of IL-6 was used for LNCaP, a prostate cancer cell line, when treated with a drug. Each type of cells to be used in experiments were sub-cultured in a 96-well plate by counting the exact number of cells using Tali™ Image-based Cytometer (Life Technologies). In a 96-well plate, AGS, HCT116, and DU-145 were employed with 3,000 cells/well; NCI-H23, SW626, Hep3B, ACHN, BT-549, MDA-MB-231, HEL92.1.7, and U266 were employed with 5,000 cells/well; and LNCaP and MDA-MB-468 were employed with 10,000 cells/well. The cells were treated with the compounds listed in Examples which were diluted in various concentrations. Upon completion of the compounds treatment, AGS, HCT116, SW626, DU145, NCI-H23, Hep3B, ACHN, BT-549, LNCaP, HEL92.1.7, and U266 cells were cultured at 37° C. under 5% CO2 for from 72 to 96 hours, and MDA-MB-231 and MDA-MB-468 cells were cultured at 37° C. in air for from 72 to 96 hours. Subsequently, the cells were observed under microscope and drug precipitation and particular findings were investigated and recorded. And then, the 96-well plate was placed at room temperature for 30 minutes, added with 20 μL/well of CellTiter-Glo solution (Cat No. G7573, Promega) and shaken for 10 minutes, followed by being subjected to the measurement using PHERAstar™ microplate reader (BMG LABTECH) according to the supplier's general luminometer protocol. Wells where only culture liquid added without cell plating were used as a negative control, whereas wells where culture liquid containing 0.1% DMSO instead of the compounds listed in Examples were used as a positive control.

[2] = system: LNCaP; experiment: Cell growth inhibition assay, prostate cancer cell line LNCaP (medium with 10 ng/mL IL-6); conditions: Homo sapiens, medium supplemented with 10 ng/mL of IL-6, 10,000 cells/well
[3] = molecular target: T1, STAT3 (Homo sapiens, UniProt P40763); experiment: STAT3 reporter gene assay (luciferase), LNCaP stable cell line (pSTAT3-TA-luc), IL-6 stimulation
T1 construct: plasmid pSTAT3-TA-luc), which contains a stably operating STAT3 promoter; endogenous in cells
Procedure, shortened: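 Cytotoxicity was run on a duplicate plate with CellTiter-Glo, while the other plate gave luciferase read-outs from lysed LNCaP pSTAT3-TA-luc reporter cells. Cells were treated with graded compound concentrations plus IL-6 (10 ng/mL final) for 24–48 h in 3% DCC-FBS medium. Unstimulated and stimulated wells served as negative and positive controls.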

T1 sequence (P40763 whole entry): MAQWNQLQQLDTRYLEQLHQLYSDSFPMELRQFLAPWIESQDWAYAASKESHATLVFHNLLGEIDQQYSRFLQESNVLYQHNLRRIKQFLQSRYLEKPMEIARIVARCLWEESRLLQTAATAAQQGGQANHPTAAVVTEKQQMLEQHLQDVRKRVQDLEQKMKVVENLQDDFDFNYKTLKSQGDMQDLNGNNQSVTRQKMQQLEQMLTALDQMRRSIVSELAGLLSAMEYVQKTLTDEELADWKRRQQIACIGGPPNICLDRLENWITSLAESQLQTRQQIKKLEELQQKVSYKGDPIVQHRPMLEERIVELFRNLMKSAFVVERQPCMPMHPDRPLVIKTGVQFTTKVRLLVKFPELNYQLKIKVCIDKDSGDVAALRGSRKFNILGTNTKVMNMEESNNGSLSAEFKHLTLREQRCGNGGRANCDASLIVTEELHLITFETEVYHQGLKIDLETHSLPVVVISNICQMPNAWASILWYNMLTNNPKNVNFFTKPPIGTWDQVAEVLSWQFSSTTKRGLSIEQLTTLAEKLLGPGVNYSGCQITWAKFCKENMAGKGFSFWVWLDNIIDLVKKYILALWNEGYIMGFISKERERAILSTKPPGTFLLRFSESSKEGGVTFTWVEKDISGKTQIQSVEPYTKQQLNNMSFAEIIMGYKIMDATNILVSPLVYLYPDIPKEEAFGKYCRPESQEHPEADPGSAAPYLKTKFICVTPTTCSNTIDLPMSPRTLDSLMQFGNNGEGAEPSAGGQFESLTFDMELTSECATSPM

IC50 [1]	IC50 [2]	IC50 [3]	Structure (SMILES)
1.2 µM	4.7 µM	1.2 µM	CNS(=O)(=O)Nc1ccc2cc(C(=O)Nc3cccc(C(C)(C)c4ccc(F)cc4)c3)[nH]c2c1 [Example 5, N-(3-(2-(4-fluorophenyl)propan-2-yl)phenyl)-6-((N-methylsulfamoyl)amino)-1H-indole-2-carboxamide]
0.32 µM	2.3 µM	0.48 µM	CS(=O)(=O)Nc1ccc2cc(C(=O)Nc3cc(-c4ccc(F)nc4)cc(-c4ccc(F)cc4F)c3)[nH]c2c1 [Example 349, N-(2′,4′-difluoro-5-(6-fluoropyridin-3-yl)-[1,1′-biphenyl]-3-yl)-6-(methylsulfonamido)-1H-indole-2-carboxamide]
4 µM	5.2 µM	1.4 µM	CC(C)(c1cc(Br)cc(NC(=O)c2cc3cc(NS(C)(=O)=O)ccc3s2)c1)c1cc(OCC(N)=O)ccc1F [Example 44, N-(3-(2-(5-(2-amino-2-oxoethoxy)-2-fluorophenyl)propan-2-yl)-5-bromophenyl)-5-(methylsulfonamido)benzo[b]thiophene-2-carboxamide]
3.2 µM	4.2 µM	3.3 µM	CC(C)(c1ccc(F)cc1)c1cccc(NC(=O)c2cc3cc(OC(F)(F)F)ccc3[nH]2)c1 [Example 25, N-(3-(2-(4-fluorophenyl)propan-2-yl)phenyl)-5-(trifluoromethoxy)-1H-indole-2-carboxamide]
0.54 µM	4 µM	0.96 µM	CS(=O)(=O)Nc1ccc2cc(C(=O)Nc3cccc(-c4ccc(F)cc4F)c3)sc2c1 [Example 242, N-(2′,4′-difluoro-[1,1′-biphenyl]-3-yl)-6-(methylsulfonamido)benzo[b]thiophene-2-carboxamide]
4.3 µM	> 10 µM	5.8 µM	CC(O)(c1ccccc1)c1cccc(NC(=O)c2cc3ccc(NS(C)(=O)=O)cc3[nH]2)c1 (stereo not drawn) [Example 435, N-(3-(1-hydroxy-1-phenylethyl)phenyl)-6-(methylsulfonamido)-1H-indole-2-carboxamide]
8.1 µM	> 10 µM	5.6 µM	O=C(Nc1cc(Br)cc(-c2ccc(F)cc2F)c1)c1cc2cc(OC(F)(F)F)ccc2[nH]1 [Example 308, N-(5-bromo-2′,4′-difluoro-[1,1′-biphenyl]-3-yl)-5-(trifluoromethoxy)-1H-indole-2-carboxamide]
0.09 µM	0.42 µM	0.078 µM	C#Cc1cc(NC(=O)c2cc3cc(NS(C)(=O)=O)ccc3s2)cc(C(C)(C)c2ccc(F)cc2F)c1 [Example 109, N-(3-(2-(2,4-difluorophenyl)propan-2-yl)-5-ethynylphenyl)-5-(methylsulfonamido)benzo[b]thiophene-2-carboxamide]
0.094 µM	1.1 µM	0.26 µM	C=C(c1ccccc1)c1cccc(NC(=O)c2cc3cc(NS(C)(=O)=O)ccc3s2)c1 [Example 423, 5-(methylsulfonamido)-N-(3-(1-phenylvinyl)phenyl)benzo[b]thiophene-2-carboxamide]
0.37 µM	3.7 µM	4.5 µM	COc1cc(NC(=O)c2cc3ccc(NS(C)(=O)=O)cc3[nH]2)cc(-c2ccc(F)cc2F)c1 [Example 314, N-(2′,4′-difluoro-5-methoxy-[1,1′-biphenyl]-3-yl)-6-(methylsulfonamido)-1H-indole-2-carboxamide]
0.026 µM	0.49 µM	0.19 µM	CC(C)(c1cccc(NC(=O)c2cc3cc(NS(C)(=O)=O)ccc3s2)c1)c1ccccc1F [Example 31, N-(3-(2-(2-fluorophenyl)propan-2-yl)phenyl)-5-(methylsulfonamido)benzo[b]thiophene-2-carboxamide]
0.05 µM	0.22 µM	0.048 µM	CC(C)(c1ccc(F)cc1)c1cc(NC(=O)c2cc3cc(NS(C)(=O)=O)ccc3s2)cc(OC(F)F)c1 [Example 39, N-(3-(difluoromethoxy)-5-(2-(4-fluorophenyl)propan-2-yl)phenyl)-5-(methylsulfonamido)benzo[b]thiophene-2-carboxamide]
0.69 µM	2.6 µM	0.72 µM	CS(=O)(=O)Nc1ccc2cc(C(=O)Nc3cc(-c4ccc(F)cc4F)cc(-c4ccc(F)cc4F)c3)[nH]c2c1 [Example 362, 6-(methylsulfonamido)-N-(2,2″,4,4″-tetrafluoro-[1,1′:3′,1″-terphenyl]-5′-yl)-1H-indole-2-carboxamide]
0.37 µM	1.7 µM	0.28 µM	CS(=O)(=O)Nc1ccc2oc(C(=O)Nc3cc(Br)cc(-c4ccc(F)cc4F)c3)cc2c1 [Example 306, N-(5-bromo-2′,4′-difluoro-[1,1′-biphenyl]-3-yl)-5-(methylsulfonamido)benzofuran-2-carboxamide]
0.032 µM	0.6 µM	0.21 µM	CS(=O)(=O)Nc1ccc2sc(C(=O)Nc3cc(OC(F)F)cc(-c4ccc(F)cc4F)c3)cc2c1 [Example 370, N-(5-(difluoromethoxy)-2′,4′-difluoro-[1,1′-biphenyl]-3-yl)-5-(methylsulfonamido)benzo[b]thiophene-2-carboxamide]
0.081 µM	0.54 µM	0.16 µM	CCC(CC)(c1cc(NC(=O)c2cc3ccc(NS(C)(=O)=O)cc3[nH]2)cc(OC)c1)c1cc(OC)cc(OC(F)(F)F)c1 [Example 55, N-(3-methoxy-5-(3-(3-methoxy-5-(trifluoromethoxy)phenyl)pentan-3-yl)phenyl)-6-(methylsulfonamido)-1H-indole-2-carboxamide]
2.33 µM	4.3 µM	0.09 µM	COc1cccc(-c2cc(NC(=O)c3cc4ccc(NS(C)(=O)=O)cc4[nH]3)cc(-c3ccc(F)cc3F)c2)n1 [Example 383, N-(2′,4′-difluoro-5-(6-methoxypyridin-2-yl)-[1,1′-biphenyl]-3-yl)-6-(methylsulfonamido)-1H-indole-2-carboxamide]
0.91 µM	3.8 µM	0.33 µM	COc1ccc(-c2cc(NC(=O)c3cc4ccc(NS(C)(=O)=O)cc4[nH]3)cc(-c3ccc(F)cc3F)c2)cn1 [Example 382, N-(2′,4′-difluoro-5-(6-methoxypyridin-3-yl)-[1,1′-biphenyl]-3-yl)-6-(methylsulfonamido)-1H-indole-2-carboxamide]
0.073 µM	0.31 µM	0.078 µM	C#Cc1cc(NC(=O)c2cc3cc(NS(C)(=O)=O)ccc3s2)cc(C(C)(C)c2ccc(F)cc2)c1 [Example 108, N-(3-ethynyl-5-(2-(4-fluorophenyl)propan-2-yl)phenyl)-5-(methylsulfonamido)benzo[b]thiophene-2-carboxamide]
5.3 µM	> 10 µM	4 µM	CS(=O)(=O)c1ccc2cc(C(=O)Nc3cc(Br)cc(-c4ccc(F)cc4F)c3)[nH]c2c1 [Example 304, N-(5-bromo-2′,4′-difluoro-[1,1′-biphenyl]-3-yl)-6-(methylsulfonyl)-1H-indole-2-carboxamide]
0.35 µM	2.4 µM	0.31 µM	CC(C)(c1cccc(NC(=O)c2cc3ccc(NS(C)(=O)=O)cc3[nH]2)c1)c1ccccc1F [Example 7, N-(3-(2-(2-fluorophenyl)propan-2-yl)phenyl)-6-(methylsulfonamido)-1H-indole-2-carboxamide]
0.23 µM	2.5 µM	0.19 µM	CC(C)(c1ccc(F)cc1)c1cccc(NC(=O)c2cc3ccc(NS(C)(=O)=O)cc3[nH]2)c1 [Example 1, N-(3-(2-(4-fluorophenyl)propan-2-yl)phenyl)-6-(methylsulfonamido)-1H-indole-2-carboxamide]
3.3 µM	9.9 µM	3.6 µM	CS(=O)(=O)Nc1ccc2cc(C(=O)Nc3cc(-c4ccncc4)cc(-c4ccc(F)cc4F)c3)[nH]c2c1 [Example 356, N-(2′,4′-difluoro-5-(pyridin-4-yl)-[1,1′-biphenyl]-3-yl)-6-(methylsulfonamido)-1H-indole-2-carboxamide]

From patent US10562912B2 (C&C Research Laboratories, priority 2013, dated 2020)
